Data taken from PubChem BioAssay (NCI).
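Test compounds were applied to cells in 96-well plates for 48 hours at 5 doses. GI50: concentration for 50% inhibition of growth. TGI marks complete inhibition of growth.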

Key:
Test in all cases: NCI-60 cell line screen, 48 h
A498 renal = test system: A498 renal
SK-MEL-28 melanoma = test system: SK-MEL-28 melanoma
SK-MEL-5 melanoma = test system: SK-MEL-5 melanoma
SK-OV-3 ovarian = test system: SK-OV-3 ovarian
KM12 colon = test system: KM12 colon
NCI/ADR-RES ovarian = test system: NCI/ADR-RES ovarian
NCI-H226 lung = test system: NCI-H226 lung
RXF 393 renal = test system: RXF 393 renal
HT29 colon = test system: HT29 colon
TK-10 renal = test system: TK-10 renal
HCT-15 colon = test system: HCT-15 colon
A549 NSCLC = test system: A549 NSCLC
M14 melanoma = test system: M14 melanoma
RPMI-8226 leukemia = test system: RPMI-8226 leukemia
MDA-MB-435 = test system: MDA-MB-435
OVCAR-3 ovarian = test system: OVCAR-3 ovarian
SW-620 colon = test system: SW-620 colon
SF-539 CNS = test system: SF-539 CNS
DU-145 prostate = test system: DU-145 prostate
MALME-3M melanoma = test system: MALME-3M melanoma
UO-31 renal = test system: UO-31 renal
T-47D breast = test system: T-47D breast
ACHN renal = test system: ACHN renal
HS 578T breast = test system: HS 578T breast
BT-549 breast = test system: BT-549 breast
HL-60(TB) leukemia = test system: HL-60(TB) leukemia
HOP-92 NSCLC = test system: HOP-92 NSCLC
K-562 leukemia = test system: K-562 leukemia
OVCAR-4 ovarian = test system: OVCAR-4 ovarian
HCC-2998 colon = test system: HCC-2998 colon
NCI-H23 lung = test system: NCI-H23 lung
786-0 renal = test system: 786-0 renal
MDA-MB-231 breast = test system: MDA-MB-231 breast
CAKI-1 renal = test system: CAKI-1 renal
LOX IMVI melanoma = test system: LOX IMVI melanoma
SF-268 CNS = test system: SF-268 CNS
COLO 205 colon = test system: COLO 205 colon
NCI-H522 lung = test system: NCI-H522 lung
OVCAR-8 ovarian = test system: OVCAR-8 ovarian
NCI-H460 lung = test system: NCI-H460 lung
SN12C renal = test system: SN12C renal
SF-295 CNS = test system: SF-295 CNS
SNB-75 CNS = test system: SNB-75 CNS
SK-MEL-2 melanoma = test system: SK-MEL-2 melanoma
UACC-257 melanoma = test system: UACC-257 melanoma
EKVX NSCLC = test system: EKVX NSCLC
MCF7 breast = test system: MCF7 breast
CCRF-CEM leukemia = test system: CCRF-CEM leukemia
HCT-116 colon = test system: HCT-116 colon
PC-3 prostate = test system: PC-3 prostate
MOLT-4 leukemia = test system: MOLT-4 leukemia
IGROV1 ovarian = test system: IGROV1 ovarian
SNB-19 CNS = test system: SNB-19 CNS
SR leukemia = test system: SR leukemia
U251 CNS = test system: U251 CNS
HOP-62 NSCLC = test system: HOP-62 NSCLC
OVCAR-5 ovarian = test system: OVCAR-5 ovarian
UACC-62 melanoma = test system: UACC-62 melanoma
MDA-N = test system: MDA-N

SMILES: Cc1oc2c(C(=O)N/N=C\c3ccc(O)cc3O)c[nH]c2c1C
- GI50 (A498 renal): 6.62 µM
- TGI (A498 renal): 39.3 µM
- GI50 (SK-MEL-28 melanoma): 2.12 µM
- TGI (SK-MEL-28 melanoma): > 41.7 µM
- GI50 (SK-MEL-5 melanoma): 1.02 µM
- TGI (SK-MEL-5 melanoma): 15.7 µM
- GI50 (SK-OV-3 ovarian): 0.68 µM
- TGI (SK-OV-3 ovarian): 17.4 µM
- GI50 (KM12 colon): 1.1 µM
- TGI (KM12 colon): > 73.4 µM
- GI50 (NCI/ADR-RES ovarian): 0.295 µM
- TGI (NCI/ADR-RES ovarian): 23.3 µM
- GI50 (NCI-H226 lung): 4.14 µM
- TGI (NCI-H226 lung): 24.3 µM
- GI50 (RXF 393 renal): 0.58 µM
- TGI (RXF 393 renal): 16.7 µM
- GI50 (HT29 colon): 2.85 µM
- TGI (HT29 colon): > 48.2 µM
- GI50 (TK-10 renal): 1.03 µM
- TGI (TK-10 renal): > 64.8 µM
- GI50 (HCT-15 colon): 0.175 µM
- TGI (HCT-15 colon): > 100 µM
- GI50 (A549 NSCLC): 0.518 µM
- TGI (A549 NSCLC): 13.2 µM
- GI50 (M14 melanoma): 0.756 µM
- TGI (M14 melanoma): 17.3 µM
- GI50 (RPMI-8226 leukemia): 0.445 µM
- TGI (RPMI-8226 leukemia): 17.4 µM
- GI50 (MDA-MB-435): 4.52 µM
- TGI (MDA-MB-435): > 100 µM
- GI50 (OVCAR-3 ovarian): 0.368 µM
- TGI (OVCAR-3 ovarian): > 39.4 µM
- GI50 (SW-620 colon): 0.801 µM
- TGI (SW-620 colon): > 37 µM
- GI50 (SF-539 CNS): 0.84 µM
- TGI (SF-539 CNS): 12.5 µM
- GI50 (DU-145 prostate): 1.32 µM
- TGI (DU-145 prostate): > 41.1 µM
- GI50 (MALME-3M melanoma): 2.23 µM
- TGI (MALME-3M melanoma): 25.3 µM
- GI50 (UO-31 renal): 0.208 µM
- TGI (UO-31 renal): 13.9 µM
- GI50 (T-47D breast): 1.79 µM
- TGI (T-47D breast): > 43.2 µM
- GI50 (ACHN renal): 0.339 µM
- TGI (ACHN renal): 13.7 µM
- GI50 (HS 578T breast): 6.71 µM
- TGI (HS 578T breast): > 60.7 µM
- GI50 (BT-549 breast): 2.05 µM
- TGI (BT-549 breast): > 54.6 µM
- GI50 (HL-60(TB) leukemia): 0.337 µM
- GI50 (HOP-92 NSCLC): 0.541 µM
- TGI (HOP-92 NSCLC): 9.21 µM
- GI50 (K-562 leukemia): 1.14 µM
- TGI (K-562 leukemia): > 100 µM
- GI50 (OVCAR-4 ovarian): 0.414 µM
- TGI (OVCAR-4 ovarian): > 47.1 µM
- GI50 (HCC-2998 colon): 0.876 µM
- TGI (HCC-2998 colon): > 50.6 µM
- GI50 (NCI-H23 lung): 1.49 µM
- TGI (NCI-H23 lung): 24.3 µM
- GI50 (786-0 renal): 0.464 µM
- TGI (786-0 renal): 7.49 µM
- GI50 (MDA-MB-231 breast): 8.13 µM
- TGI (MDA-MB-231 breast): > 45.9 µM
- GI50 (CAKI-1 renal): 0.739 µM
- TGI (CAKI-1 renal): 26.7 µM
- GI50 (LOX IMVI melanoma): 0.409 µM
- TGI (LOX IMVI melanoma): 10.6 µM
- GI50 (SF-268 CNS): 0.662 µM
- TGI (SF-268 CNS): > 44.4 µM
- GI50 (COLO 205 colon): 0.29 µM
- GI50 (NCI-H522 lung): 0.704 µM
- TGI (NCI-H522 lung): 63.9 µM
- GI50 (OVCAR-8 ovarian): 0.664 µM
- TGI (OVCAR-8 ovarian): 39.7 µM
- GI50 (NCI-H460 lung): 0.347 µM
- TGI (NCI-H460 lung): 7.28 µM
- GI50 (SN12C renal): 2.54 µM
- TGI (SN12C renal): > 48.4 µM
- GI50 (SF-295 CNS): 0.435 µM
- TGI (SF-295 CNS): 29.6 µM
- GI50 (SNB-75 CNS): 3.57 µM
- TGI (SNB-75 CNS): > 39.6 µM
- GI50 (SK-MEL-2 melanoma): 10.4 µM
- TGI (SK-MEL-2 melanoma): > 100 µM
- GI50 (UACC-257 melanoma): 0.644 µM
- TGI (UACC-257 melanoma): 3.08 µM
- GI50 (EKVX NSCLC): 0.46 µM
- TGI (EKVX NSCLC): > 54.2 µM
- GI50 (MCF7 breast): 0.521 µM
- TGI (MCF7 breast): > 33.6 µM
- GI50 (CCRF-CEM leukemia): 0.19 µM
- TGI (CCRF-CEM leukemia): > 100 µM
- GI50 (HCT-116 colon): 0.424 µM
- TGI (HCT-116 colon): 32.5 µM
- GI50 (PC-3 prostate): 0.579 µM
- TGI (PC-3 prostate): > 45.6 µM
- GI50 (MOLT-4 leukemia): 0.44 µM
- TGI (MOLT-4 leukemia): > 100 µM
- GI50 (IGROV1 ovarian): 0.593 µM
- TGI (IGROV1 ovarian): 44.5 µM
- GI50 (SNB-19 CNS): 1.32 µM
- TGI (SNB-19 CNS): > 42 µM
- GI50 (SR leukemia): 4.47 µM
- TGI (SR leukemia): > 100 µM
- GI50 (U251 CNS): 0.57 µM
- TGI (U251 CNS): 15.4 µM
- GI50 (HOP-62 NSCLC): 0.754 µM
- TGI (HOP-62 NSCLC): 26.3 µM
- GI50 (OVCAR-5 ovarian): 3.89 µM
- TGI (OVCAR-5 ovarian): > 45.2 µM
- GI50 (UACC-62 melanoma): 0.665 µM
- TGI (UACC-62 melanoma): 8.32 µM

SMILES: CCOC(CNc1nn2c(C)nnc2s1)OCC
- TGI (A498 renal): > 100 µM
- TGI (SK-MEL-28 melanoma): > 100 µM
- TGI (SK-MEL-5 melanoma): > 100 µM
- TGI (SK-OV-3 ovarian): > 100 µM
- TGI (KM12 colon): > 100 µM
- TGI (NCI/ADR-RES ovarian): > 100 µM
- TGI (NCI-H226 lung): > 100 µM
- TGI (RXF 393 renal): > 100 µM
- TGI (HT29 colon): > 100 µM
- TGI (TK-10 renal): > 100 µM
- TGI (HCT-15 colon): > 100 µM
- TGI (A549 NSCLC): > 100 µM
- TGI (MDA-N): > 100 µM
- TGI (M14 melanoma): > 100 µM
- TGI (RPMI-8226 leukemia): > 100 µM
- TGI (MDA-MB-435): > 100 µM
- TGI (OVCAR-3 ovarian): > 100 µM
- TGI (SW-620 colon): > 100 µM
- TGI (SF-539 CNS): > 100 µM
- TGI (DU-145 prostate): > 100 µM
- TGI (MALME-3M melanoma): > 100 µM
- TGI (ACHN renal): > 100 µM
- TGI (HS 578T breast): > 100 µM
- TGI (HL-60(TB) leukemia): > 100 µM
- TGI (HOP-92 NSCLC): > 100 µM
- TGI (K-562 leukemia): > 100 µM
- TGI (OVCAR-4 ovarian): > 100 µM
- TGI (HCC-2998 colon): > 100 µM
- TGI (NCI-H23 lung): > 100 µM
- TGI (786-0 renal): > 100 µM
- TGI (MDA-MB-231 breast): > 100 µM
- TGI (CAKI-1 renal): > 100 µM
- TGI (LOX IMVI melanoma): > 100 µM
- TGI (SF-268 CNS): > 100 µM
- TGI (COLO 205 colon): > 100 µM
- TGI (NCI-H522 lung): > 100 µM
- TGI (OVCAR-8 ovarian): > 100 µM
- TGI (NCI-H460 lung): > 100 µM
- TGI (SN12C renal): > 100 µM
- TGI (SF-295 CNS): > 100 µM
- TGI (SNB-75 CNS): > 100 µM
- TGI (SK-MEL-2 melanoma): > 100 µM
- TGI (UACC-257 melanoma): > 100 µM
- TGI (EKVX NSCLC): > 100 µM
- TGI (MCF7 breast): > 100 µM
- TGI (CCRF-CEM leukemia): > 100 µM
- TGI (HCT-116 colon): > 100 µM
- TGI (PC-3 prostate): > 100 µM
- TGI (MOLT-4 leukemia): > 100 µM
- TGI (IGROV1 ovarian): > 100 µM
- TGI (SNB-19 CNS): > 100 µM
- TGI (SR leukemia): > 100 µM
- TGI (U251 CNS): > 100 µM
- TGI (HOP-62 NSCLC): > 100 µM
- TGI (OVCAR-5 ovarian): > 100 µM
- TGI (UACC-62 melanoma): > 100 µM
